Reference: patent US20190029987A1, “DIMETHYL FUMARATE (DMF) FOR PREVENTION OR TREATMENT OF GOUT, ACNE, DIABETES, VITILIGO AND/OR PYODERMA GANGRENOSUM” (UNIVERSITAT ZURICH, priority 2016, published 2019)
Peptide text beside a SMILES is read from it. * marks the point of attachment. Cbz = O=C(OCc1ccccc1)*

Columns and labels:
[1] = system: Nrf2; experiment: UVB-induced Nrf2 degradation in HPKs (Western blot); format: cell-based, human; conditions: 1 μM for 10 min, harvested after 1 h, FIG. 7D
Text: Next, the inventors investigated the activity of Nrf2 upon activation of the NLRP3 inflammasome, since inflammasome activation is ROS-dependent. […] This is surprising, since UVB irradiation is a strong inducer of ROS production and it can be anticipated that the cells would benefit from Nrf2 activation. UVB-induced secretion by HPKs requires expression of NLRP1 and NLRP3 [21]. Both nigericin and MSU crystals are considered as “true” NLRP3 activators, but HPKs cannot phagocytose MSU crystals. Therefore, the inventors treated HPKs with nigericin only and THP-1 cells with either of these NLRP3 activators. […] Therefore, NLRP3 inflammasome activation most likely induces Nrf2 protein degradation. […] However, inflammasome activation-induced Nrf2 degradation was blocked upon ablation of ASC or NLRP3 expression (FIG. 4G) and upon treatment of cells with the ROS blocker PDTC or the Ca2+ chelator BAPTA-AM (Supplementary FIG. 2D). […] However, inflammasome function was not impaired, as reflected by normal processing of pro-IL-18 (FIG. 4H). Although Keap1 expression is partially dispensable for Nrf2 degradation by inflammasome activation, the transcription factor is directed to the proteasome under these conditions, since Nrf2 degradation was inhibited by the proteasome inhibitor MG132 (FIG. 4I and FIG. 7D).
FIG. 7: (A-C) HPKs were transfected with siRNAs for 3 d as indicated. Scrambled (scr) siRNA and siRNA targeting the unrelated vascular endothelial growth factor (VEGF) served as controls. Western blots of (A) total lysates or (B) nuclear and cytoplasmic lysates and (C) qRT-PCR for expression of target gene expression. (D) HPKs were treated with MG132 (1 μM), PDTC (500 μM) or BAPTA-AM (12.5 μM) for 10 min and harvested (before UV) or irradiated with UVB and harvested after 1 h. Western blots showing expression of Nrf2. (E) Differentiated and primed THP-1 cells were pretreated with cycloheximide (CHX, 30 μg/ml) for 1 h before priming cells with upLPS overnight. Western blots show expression of the indicated proteins. […] Statistics: (C) Mann-Whitney test, related to scr control. *P≤0.05

[2] = system: Nrf2; experiment: Nigericin-induced Nrf2 degradation in THP-1 cells (Western blot); format: cell-based, human; conditions: THP-1, nigericin 5 μM, 1 μM added after 1 h, harvested after 2.5 h, FIG. 4I
Text: Next, the inventors investigated the activity of Nrf2 upon activation of the NLRP3 inflammasome, since inflammasome activation is ROS-dependent. […] This is surprising, since UVB irradiation is a strong inducer of ROS production and it can be anticipated that the cells would benefit from Nrf2 activation. UVB-induced secretion by HPKs requires expression of NLRP1 and NLRP3 [21]. Both nigericin and MSU crystals are considered as “true” NLRP3 activators, but HPKs cannot phagocytose MSU crystals. Therefore, the inventors treated HPKs with nigericin only and THP-1 cells with either of these NLRP3 activators. […] Therefore, NLRP3 inflammasome activation most likely induces Nrf2 protein degradation. […]
(A-C) HPKs were irradiated with (A) UVB or treated with (B) nigericin (5 μM) and cells and supernatants were harvested at different time points as indicated. […] (C) Expression of Nrf2 and Nrf2 target genes was determined by qRT-PCR. […] Cells and supernatants were harvested at different time points as indicated and analysed for (D) expression and activation of the proteins as indicated by Western blot and (E) expression of Nrf2 and Nrf2 target genes by qRT-PCR. […] Cells were harvested after 1 h or 5 h, and lysates were analysed for the expression of the indicated proteins by Western blot. […] (G) Nrf2 expression related to the indicated background band was quantified from the Western blot. […]

## CC(C)C[C@@H](C=O)NC(=O)[C@H](CC(C)C)NC(=O)[C@H](CC(C)C)NC(=O)OCc1ccccc1 [MG132] (Cbz-Leu-Leu-Leu-aldehyde)
[1]
  inflammasome activation-induced Nrf2 degradation: inhibited
[2]
  inflammasome activation-induced Nrf2 degradation: inhibited
